The results in this text go back to patent publication US9649295B2, “Chemical inhibitors of soluble adenylyl cyclase (sAC)” (Cornell Research Foundation, Inc., priority 2004, dated 2017).

One test has as its system primary mouse islets. The experiment in a line: insulin release from isolated mouse islets. The following applies: 16.7 mM glucose, 30 minutes, 30 μM KH7. It counts as cell-based. On the procedure:
After several washes with Hank's Balanced Salt Solution, islets were hand-picked and 15-20 islets were distributed into each well of a 12 well plate to adhere overnight in RPMI-1640 media supplemented with 10 mM HEPES, 5.6 mM glucose, 10% FBS, 2 mM L-glutamine, 1 mM sodium pyruvate, and antibiotics.
Insulin release from isolated islets was performed in 12 well plates. Islets were preincubated in KRB (2.8 mM glucose) for 1 hour followed by incubation for 30 minutes in 2.8 mM glucose KRB in the presence of drug. The same wells were then incubated for an additional 30 minutes in 16.7 mM glucose KRB in the presence of the same drugs. Media was removed, cleared of cells, and insulin was measured.

The test system of test [1] is sAC overexpressing INS-1E cells. The experiment in a line: insulin secretion in sAC overexpressing INS-1E cells (SF2). It counts as cell-based. The note with it: 30 μM KH7, 15 minutes. An excerpt: FIGS. 14A-C illustrate that sAC-generated cAMP, distinct from tmAC-generated cAMP, is sufficient to elicit insulin secretion. […] Shown is a representative assay repeated at least five times; values indicate duplicate determinations with standard deviations. […] Shown is a representative assay repeated at least five times; values indicate duplicate determinations with standard deviations. Insert is a Western blot indicating the levels of sAC protein in INS-1E, SF2, and SF5 cells. […] Values represent mean±SEM (n=3). ANOVA analysis was performed with asterisks indicating statistically significant differences. ***=p<0.001. […]
Briefly, cells (passage 140-150) were plated at 2.5×10^5 cells/well in a 24 well plate and permitted to recover for two days. […] After the indicated time, removed media was cleared of cell debris and secreted insulin was measured by Insulin ELISA kit (Linco Research, St. Charles, Mo., or ALPCO, Windham, N.H.). If cAMP was to be concomitantly measured, cells were pre-treated with IBMX for the final 10 minutes of the glucose starvation and IBMX was included in all subsequent incubations. For the washout experiment, subsequent to initial insulin determination, cells treated with KH7 were placed in fresh KRB (2.5 mM glucose) for an additional hour and insulin release was measured as above in the absence of any added drug. […]

Consider `CC(Sc1nc2ccccc2[nH]1)C(=O)N/N=C/c1cc(Br)ccc1O` (centres unmarked) [KH7], for which the “effect on insulin release induced by high glucose in islets” value in the test with primary mouse islets is recorded as “inhibited insulin release induced by high glucose”. Moreover, in test [1], the “effect on sAC overexpression-induced increase in insulin release” value is listed as “inhibited”.
